Assay results as given in the NIST ThermoML archive (doi:10.1021/acs.jced.5b00075).
Numbers after ± are expanded uncertainties.

Key:
[1] = Crystal; DTA
[2] = Molar enthalpy of transition or fusion; details: Crystal; DSC
[3] = molar heat capacity at constant pressure; details: 101.33 kPa, Small sample (50 mg) DSC

C(=C\c1ccccc1)/CN1CCN(C(c2ccccc2)c2ccccc2)CC1 [cinnarizine]
Details | Molar enthalpy of transition or fusion [kcal/mol] | Normal melting temperature [°C]
[1] | – | 120.83 ± 0.5
[2] | 8.87 ± 1.03 | –

[3]
Details | molar heat capacity at constant pressure [J/K/mol]
305 K, Crystal | 307.19 ± 37
310 K, Crystal | 314.6 ± 37
315 K, Crystal | 322.02 ± 37
320 K, Crystal | 329.43 ± 37
325 K, Crystal | 336.84 ± 38
330 K, Crystal | 344.26 ± 38
335 K, Crystal | 351.67 ± 38
340 K, Crystal | 359.09 ± 38
345 K, Crystal | 366.5 ± 38
350 K, Crystal | 373.91 ± 38
355 K, Crystal | 381.33 ± 38
360 K, Crystal | 388.74 ± 38
365 K, Crystal | 396.15 ± 38
370 K, Crystal | 403.57 ± 38
375 K, Crystal | 410.98 ± 38
380 K, Crystal | 418.4 ± 38
385 K, Crystal | 425.81 ± 38
400 K, Liquid | 558.85 ± 35
405 K, Liquid | 563.97 ± 36
410 K, Liquid | 569.09 ± 36
415 K, Liquid | 574.21 ± 36
